Holding throughout (format): cell-based
The test system of assay [1] is SK-N-BE(2) cells. The assay can be described thus: Relative intracellular metabolite levels by LC/MS. The procedure: Metabolic analysis. For the metabolomics and isotope tracing analysis in vitro, cells were washed with cold PBS, lysed in 80% Ultra LC-MS acetonitrile on ice for 15 minutes, centrifuged at 20,000 g for 10 minutes at 4° C., and supernatant was subjected to mass spectrometry analysis. For the metabolomics analysis in vivo, 10-20 mg tissue were cut off on ice, rinsed if necessary to remove blood, and place in a 2 ml round-bottom cryovial. The tissues were homogenized by 3 times 10 s on/off bursts homogenization in 1 ml 80% methanol on dry ice. Transfer the homogenate to an Eppendorf tube and keep on liquid nitrogen while processing the remaining samples. Incubated all the samples in −80° C. for 30 minutes. After incubation, vortexed the samples for 5 seconds. Then centrifuged the samples at 20,000 g for 10 minutes at 4° C., and supernatant was subjected to mass spectrometry analysis. Resuspend the remaining cellular pellet in 100 ul protein lysis buffer and determine the protein concentration. Then calculate the total protein content per sample.
Liquid chromatography was performed using an Agilent 1290 Infinity LC system (Agilent, Santa Clara, US) coupled to a Q-TOF 6545 mass spectrometer (Agilent, Santa Clara, US). A hydrophilic interaction chromatography method (HILIC) with a BEH amide column (100×2.1 mm i.d., 1.7 μm; Waters) was used for compound separation at 35° C. with a flow rate of 0.3 ml/minutes. The mobile phase A consisted of 25 mM ammonium acetate and 25 mM ammonium hydroxide in water and mobile phase B was acetonitrile. The gradient elution was 0-1 minute, 85% B; 1-12 minutes, 85% B→65% B; 12-12.2 minutes, 65% B→40% B; 12.2-15 minutes, 40% B. After the gradient, the column was re-equilibrated at 85% B for 5 minutes. The overall runtime was 20 minutes, and the injection volume was 5 μL. Agilent Q-TOF was operated in negative mode and the relevant parameters were as listed: ion spray voltage, 3500 V; nozzle voltage, 1000 V; fragmentor voltage, 125 V; drying gas flow, 11 L/minutes; capillary temperature, 325° C., drying gas temperature, 350° C.; and nebulizer pressure, 40 psi. A full scan range was set at 50 to 1600 (m/z). The reference mass was 119.0363 and 980.0164. The acquisition rate was 2 spectra/s. Targeted analysis, isotopologues extraction and natural isotope abundance correction were performed by Agilent Profinder B.10.00 (Agilent Technologies).

Assay [2] concerns N-Myc. Put plainly: N-Myc mRNA and protein levels (qPCR, western blot). The following applies: SK-N-BE(2) cells, 1 μM NEN. The protocol:
Protein extraction and immunoblot. Cells were washed with ice-cold PBS buffer (Invitrogen, 20012050) and lysed with harvest buffer (10 mM Hepes pH 7.9, 50 mM NaCl, 500 mM sucrose, 0.1 mM EDTA and 0.5% Trition X-100) supplemented with 1% Halt inhibitors (Thermo Scientific™, 78443) for 10 minutes. Cell lysate was centrifuged at 3000 rpm for 3 min at 4° C. The supernatant containing cytosolic proteins was transferred to a different tube. The pellet containing nuclear proteins was dissolved with nuclear lysis buffer (10 mM Hepes pH 7.9, 0.5M NaCl, 0.1 mM EDTA, 0.1 mM EGTA and 0.1% NP40) supplemented with 1% Halt inhibitors (Thermo Scientific™, 78443) for 5 minutes at 4° C. Then the solution was sonicated at 4° C. for 6 cycles (1 cycle=30 s sonication and 30 s cooldown with “High” energy intensity) using a Bioruptor® Plus sonication (Diagenode, UCD-300). After sonication, the solution was centrifuged at 15,000 rpm for 10 minutes. The supernatant was kept as nuclear extraction. Protein concentration was determined by BCA assay (Thermo Scientific, 23227). […] Signals were detected with an ECL kit (Thermo Scientific™, 34577) by using BioRad Universal Hood II. […] Quantitative PCR amplification was performed on the Prism 7900 Sequence Detection System (Applied Biosystems) using Taqman Gene Expression Assays (Applied Biosystems). […]

For assay [3], the system named is SK-N-BE(2) cells. The assay can be described thus: Methylated DNA Immunoprecipitation (MeDIP)-qRT-PCR. The settings on record: 1 μM NEN 5 h. The procedure: Methylated DNA Immunoprecipitation. 5×10^5 SK-N-BE(2) cells were plated in 60 mm dishes. […] After treatment, the cells were collected for DNA extraction as described above. 10 μg genomic DNA was sheared using a Bioruptor® Plus sonicator (Diagenode, UCD-300) to 550 bp fragments according to the instrument manual. Agarose electrophoresis was employed to examine the sizes of DNA fragments. The sonicated DNA samples were denatured at 95° C. for 15 minutes, then kept on ice immediately for at least 5 minutes. 200 ng denatured DNA was transferred to a new tube for input control and diluted with EDTA-free TE buffer to 100 μl total volume. For each pulldown reaction, transfer 600 ng of denatured DNA solution to new tubes and add EDTA-free TE buffer to 300 μl total volume. Add 2 μl antibody (5-mc or IgG control) and 20 μl prewashed Dynabeads™ Protein A (Invitrogen™, 10001 D) into the tubes and incubate the samples at 4° C. for 60 minutes with rotation. After incubation, place the tubes in magnetic rack for 30 s to allow the beads separate from solution. Remove the solution carefully without disturbing the beads. Wash the beads for 4 times by IP buffer (0.01% SDS, 1% Triton X-100, 2 mM EDTA, 20 mM Tris-HCl pH 8.1, 150 mM NaCl). DNA was eluted by resuspending the beads in 100 μl of digestion buffer (10 mM Tris pH 8.0, 1 mM EDTA, 1% SDS, 1 μg/μl proteinase K) and incubated for 6 hr at 65° C. […]

The mark [4] stands for this setting: SK-N-BE(2) cells, 1 μM NEN 2 h or 5 h vs DMSO.
Setting [5] is: SK-N-BE(2) cells, 1 μM NEN 5 h vs DMSO.
Setting [6] is: SK-N-BE(2), 1 μM NEN under hypoxia 3 h or 6 h.

Consider `O=C(Nc1ccc([N+](=O)[O-])cc1Cl)c1cc(Cl)ccc1O` [NEN, 5-chloro-N-(2-chloro-4-nitrophenyl)-2-hydroxybenzamide compound with 2-aminoethanol (1:1)], for which, in assay [1] (setting [4]), the aspartate level result is “accumulated”, the citrate level entry was “not affected”, the fumarate level result is given as “no significant increase” and the “intracellular α-KG levels” value was “increased significantly”. Also, in assay [1] (setting [4]), the malate level result was “no significant increase” and the succinate level result was “accumulated”. In addition, in assay [1] (setting [5]), the intracellular glutamate level entry is recorded as “significantly reduced” and the intracellular glutamine level result was “significantly reduced”. Also, in assay [1] (setting [6]), the “2-HG levels under hypoxia” value is on record as “significantly reduced” and the “α-KG level under hypoxia” value was “partially restored”. Moreover, in assay [2], the “mRNA level of N-Myc” value is recorded as “significantly reduced” and the “protein level of N-Myc” value is reported as “significantly reduced”. In addition, the “methylation on promoter region of genes in RAR signaling” value in assay [3] is “reduced”.

The record behind these values is patent US11918550B2, “Sensitization of cancer cells to differentiation therapy with mitochondrial uncoupler niclosamide ethanolamine” (The Board of Trustees of the Leland Stanford Junior …, priority 2020, dated 2024).
